Source: paper PMC6576746, “Rational discovery of dual-indication multi-target PDE/Kinase inhibitor for precision anti-cancer therapy using structural systems pharmacology” (PLoS Computational Biology, 2019)
pEC50, pIC50: −log10 of the molar value.

Legend:
Assay in all cases: cells
Design in all cases: species or system panel of human cancer cell lines; Eurofins OncoPanel proliferation; nuclei count by high-content fluorescence imaging, 10-point dose response
HCT-116 = details: Homo sapiens, HCT-116, 72 h, cell count, 3 days
Summary of the method: (§1)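 Cells in RPMI 1640/10% FBS or special medium received compound the day after seeding, with a time-zero plate; 3-day incubation at 37°C, 5% CO2. Nuclei imaged by fluorescence microscopy; 10 half-log doses from 100 μM, 0.1% DMSO. EC50, IC50, GI50 and activity area (0–10) from curve fits.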

SW1783 = details: Homo sapiens, SW1783, 72 h, cell count, 3 days
Summary of the method: as §1

Hs 936.T(C1) = details: 72 h, cell count, 3 days
Summary of the method: as §1

SR = details: Homo sapiens, SR, 72 h, cell count, 3 days
Summary of the method: as §1

TCCSUP = details: Homo sapiens, TCC-SUP, 72 h, cell count, 3 days
Summary of the method: as §1

A101D = details: Homo sapiens, A101D, 72 h, cell count, 3 days
Summary of the method: as §1

H4 = details: 72 h, cell count, 3 days
Summary of the method: as §1

SW48 = details: Homo sapiens, SW48, 72 h, cell count, 3 days
Summary of the method: as §1

Hs 445 = details: Hs 445, 72 h, cell count, 3 days
Summary of the method: as §1

Hs 852.T = details: 72 h, cell count, 3 days
Summary of the method: as §1

Cal 27 = details: Homo sapiens, CAL-27, 72 h, cell count, 3 days
Summary of the method: as §1

HT1376 = details: Homo sapiens, HT-1376, 72 h, cell count, 3 days
Summary of the method: as §1

EB2 = details: Homo sapiens, EB2, 72 h, cell count, 3 days
Summary of the method: as §1

MOLT-3 = details: Homo sapiens, MOLT-3, 72 h, cell count, 3 days
Summary of the method: as §1

[1] = 50% of maximum possible response

pIC50 (HCT-116; [1]): 5.08 | GI50 (HCT-116; corrected for time zero): 8.1 µM | pEC50 (HCT-116; curve inflection point): 5.10 | pIC50 (SW1783; [1]): 4.09 | GI50 (SW1783; corrected for time zero): 35.6 µM | pEC50 (SW1783; curve inflection point): 4.09 | pIC50 (SW48; [1]): 4.87 | GI50 (SW48; corrected for time zero): 9.81 µM | pEC50 (SW48; curve inflection point): 4.87 | pIC50 (HT1376; [1]): < 4.00 | GI50 (HT1376; corrected for time zero): > 100 µM | pEC50 (HT1376; curve inflection point): < 4.00 | pIC50 (MOLT-3; [1]): 4.49 | GI50 (MOLT-3; corrected for time zero): 19.9 µM | pEC50 (MOLT-3; curve inflection point): 4.52
SMILES: C[C@@H]1CC(=O)NN=C1c1ccc(NN=C(C#N)C#N)cc1 [levosimendan]
pIC50 (Hs 936.T(C1); [1]): < 4.00 | GI50 (Hs 936.T(C1); corrected for time zero): > 100 µM | pEC50 (Hs 936.T(C1); curve inflection point): < 4.00 | pIC50 (SR; [1]): 4.79 | GI50 (SR; corrected for time zero): 14.7 µM | pEC50 (SR; curve inflection point): 4.81 | pIC50 (TCCSUP; [1]): < 4.00 | GI50 (TCCSUP; corrected for time zero): 94.3 µM | pEC50 (TCCSUP; curve inflection point): < 4.00 | pIC50 (A101D; [1]): 4.46 | GI50 (A101D; corrected for time zero): 26.6 µM | pEC50 (A101D; curve inflection point): 4.46 | pIC50 (H4; [1]): < 4.00 | GI50 (H4; corrected for time zero): > 100 µM | pEC50 (H4; curve inflection point): < 4.00 | pIC50 (Hs 445; [1]): 4.51 | GI50 (Hs 445; corrected for time zero): 21.8 µM | pEC50 (Hs 445; curve inflection point): 4.58 | pIC50 (Hs 852.T; [1]): 4.09 | GI50 (Hs 852.T; corrected for time zero): 25 µM | pEC50 (Hs 852.T; curve inflection point): 4.09 | pIC50 (Cal 27; [1]): 4.83 | GI50 (Cal 27; corrected for time zero): 13.2 µM | pEC50 (Cal 27; curve inflection point): 4.84 | pIC50 (EB2; [1]): 4.46 | GI50 (EB2; corrected for time zero): 24.5 µM | pEC50 (EB2; curve inflection point): 4.46
